According to ChEMBL document CHEMBL3045684, “Compatibility of traditional and novel acaricides with bumblebees (Bombus terrestris): a first laboratory assessment of toxicity and sublethal effects” (Pest Manag Sci, 2010):
Activity calls are given as the source filed them. The rule behind the calls is not given here.

Legend:
Bombus terrestris [1] = test: Toxicity against po dosed worker Bombus terrestris (bumblebee) administered through sugar water for 11 weeks measured everyday for 3 days followed by once a week for 11 weeks; assay type: functional
Bombus terrestris [2] = test: Toxicity against worker Bombus terrestris (bumblebee) assessed as reduction in reproduction at 96 mg a.i./l, po administered through sugar water for 11 weeks measured once a week for 11 weeks relative to control; assay type: functional, organism-based
Apis mellifera [3] = test: Contact toxicity against Apis mellifera (honey bee) assessed per bee; assay type: functional
Bombus terrestris [4] = test: Toxicity against worker Bombus terrestris (bumblebee) assessed as reduction in reproduction at 30 mg a.i./l, po administered through sugar water for 11 weeks measured once a week for 11 weeks relative to control; assay type: functional, organism-based
Bombus terrestris [5] = test: Contact toxicity against worker Bombus terrestris (bumblebee) assessed as mortality at 96 mg a.i./l applied on the dorsal thorax for 11 weeks measured everyday for 3 days followed by once a week for 11 weeks; assay type: functional
Bombus terrestris [6] = test: Toxicity against worker Bombus terrestris (bumblebee) assessed as mortality at 96 mg a.i./l, po administered through sugar water for 11 weeks measured everyday for 3 days followed by once a week for 11 weeks; assay type: functional
Bombus terrestris [7] = test: Toxicity against worker Bombus terrestris (bumblebee) assessed as mortality at 96 mg a.i./l, po administered through sugar water measured up to 1 week; assay type: functional, organism-based
Bombus terrestris [8] = test: Toxicity against worker Bombus terrestris (bumblebee) assessed as mortality at 96 mg a.i./l, po administered through pollen for 11 weeks measured everyday for 3 days followed by once a week for 11 weeks; assay type: functional, organism-based
Bombus terrestris [9] = test: Contact toxicity against Bombus terrestris (bumblebee) assessed per bee; assay type: functional
Apis mellifera [10] = test: Contact toxicity against Apis mellifera (honey bee) assessed per bee after 48 hr; assay type: functional
Bombus terrestris [11] = test: Contact toxicity against worker Bombus terrestris (bumblebee) assessed as reduction in reproduction at 96 mg a.i./l applied on the dorsal thorax for 11 weeks measured once a week for 11 weeks relative to control; assay type: functional, organism-based
Bombus terrestris [12] = test: Toxicity against worker Bombus terrestris (bumblebee) assessed as reduction in reproduction at 0.8 mg a.i./l, po administered through pollen for 11 weeks measured once a week for 11 weeks; assay type: functional, organism-based
Bombus terrestris [13] = test: Contact toxicity against worker Bombus terrestris (bumblebee) assessed as mortality at 0.8 mg a.i./l applied on the dorsal thorax for 11 weeks measured everyday for 3 days followed by once a week for 11 weeks; assay type: functional
Bombus terrestris [14] = test: Toxicity against worker Bombus terrestris (bumblebee) assessed as reduction in reproduction at 0.8 mg a.i./l, po administered through sugar water for 11 weeks measured once a week for 11 weeks relative to control; assay type: functional, organism-based
Bombus terrestris [15] = test: Contact toxicity against worker Bombus terrestris (bumblebee) assessed as reduction in reproduction at 0.8 mg a.i./l applied on the dorsal thorax for 11 weeks measured once a week for 11 weeks relative to control; assay type: functional, organism-based
Bombus terrestris [16] = test: Toxicity against worker Bombus terrestris (bumblebee) assessed as mortality at 0.8 mg a.i./l, po administered through pollen for 11 weeks measured everyday for 3 days followed by once a week for 11 weeks; assay type: functional, organism-based
Bombus terrestris [17] = test: Toxicity against worker Bombus terrestris (bumblebee) assessed as mortality at 0.8 mg a.i./l, po administered through sugar water for 11 weeks measured everyday for 3 days followed by once a week for 11 weeks; assay type: functional
Bombus terrestris [18] = test: Toxicity against worker Bombus terrestris (bumblebee) assessed as reduction in reproduction at 500 mg a.i./l, po administered through pollen for 11 weeks measured once a week for 11 weeks; assay type: functional; set-up: scale not given: the % may be the effect or the level left
Bombus terrestris [19] = test: Toxicity against worker Bombus terrestris (bumblebee) assessed as mortality at 500 mg a.i./l, po administered through sugar water for 11 weeks measured everyday for 3 days followed by once a week for 11 weeks; assay type: functional
Bombus terrestris [20] = test: Toxicity against worker Bombus terrestris (bumblebee) assessed as mortality at 500 mg a.i./l, po administered through pollen for 11 weeks measured everyday for 3 days followed by once a week for 11 weeks; assay type: functional, organism-based
Bombus terrestris [21] = test: Contact toxicity against worker Bombus terrestris (bumblebee) assessed as reduction in reproduction at 500 mg a.i./l applied on the dorsal thorax for 11 weeks measured once a week for 11 weeks relative to control; assay type: functional, organism-based
Bombus terrestris [22] = test: Contact toxicity against worker Bombus terrestris (bumblebee) assessed as mortality at 500 mg a.i./l applied on the dorsal thorax for 11 weeks measured everyday for 3 days followed by once a week for 11 weeks; assay type: functional
Bombus terrestris [23] = test: Toxicity against worker Bombus terrestris (bumblebee) assessed as reduction in reproduction at 500 mg a.i./l, po administered through sugar water for 11 weeks measured once a week for 11 weeks relative to control; assay type: functional, organism-based
Bombus terrestris [24] = test: Toxicity against worker Bombus terrestris (bumblebee) assessed as mortality at 150 mg a.i./l, po administered through sugar water for 11 weeks measured everyday for 3 days followed by once a week for 11 weeks; assay type: functional
Bombus terrestris [25] = test: Contact toxicity against worker Bombus terrestris (bumblebee) assessed as reduction in reproduction at 150 mg a.i./l applied on the dorsal thorax for 11 weeks measured once a week for 11 weeks relative to control; assay type: functional, organism-based
Bombus terrestris [26] = test: Toxicity against worker Bombus terrestris (bumblebee) assessed as mortality at 150 mg a.i./l, po administered through pollen for 11 weeks measured everyday for 3 days followed by once a week for 11 weeks; assay type: functional, organism-based
Bombus terrestris [27] = test: Toxicity against worker Bombus terrestris (bumblebee) assessed as reduction in reproduction at 150 mg a.i./l, po administered through pollen for 11 weeks measured once a week for 11 weeks; assay type: functional; set-up: scale not given: the % may be the effect or the level left
Bombus terrestris [28] = test: Contact toxicity against worker Bombus terrestris (bumblebee) assessed as mortality at 150 mg a.i./l applied on the dorsal thorax for 11 weeks measured everyday for 3 days followed by once a week for 11 weeks; assay type: functional
Bombus terrestris [29] = test: Toxicity against worker Bombus terrestris (bumblebee) assessed as reduction in reproduction at 96 mg a.i./l, po administered through pollen for 11 weeks measured once a week for 11 weeks; assay type: functional, organism-based
Bombus terrestris [30] = test: Toxicity against worker Bombus terrestris (bumblebee) assessed as reduction in reproduction at 75 mg a.i./l, po administered through sugar water for 11 weeks measured once a week for 11 weeks relative to control; assay type: functional, organism-based
Bombus terrestris [31] = test: Toxicity against worker Bombus terrestris (bumblebee) assessed as reduction in reproduction at 75 mg a.i./l, po administered through pollen for 11 weeks measured once a week for 11 weeks; assay type: functional, organism-based
Bombus terrestris [32] = test: Contact toxicity against worker Bombus terrestris (bumblebee) assessed as reduction in reproduction at 75 mg a.i./l applied on the dorsal thorax for 11 weeks measured once a week for 11 weeks relative to control; assay type: functional, organism-based
Bombus terrestris [33] = test: Contact toxicity against worker Bombus terrestris (bumblebee) assessed as mortality at 75 mg a.i./l applied on the dorsal thorax measured up to 1 week; assay type: functional, organism-based
Bombus terrestris [34] = test: Toxicity against worker Bombus terrestris (bumblebee) assessed as mortality at 75 mg a.i./l, po administered through sugar water for 11 weeks measured everyday for 3 days followed by once a week for 11 weeks; assay type: functional
Bombus terrestris [35] = test: Toxicity against worker Bombus terrestris (bumblebee) assessed as mortality at 75 mg a.i./l, po administered through sugar water measured after 9 to 11 weeks; assay type: functional, organism-based
Bombus terrestris [36] = test: Contact toxicity against worker Bombus terrestris (bumblebee) assessed as mortality at 75 mg a.i./l applied on the dorsal thorax for 11 weeks measured everyday for 3 days followed by once a week for 11 weeks; assay type: functional
Bombus terrestris [37] = test: Toxicity against worker Bombus terrestris (bumblebee) assessed as mortality at 75 mg a.i./l, po administered through pollen for 11 weeks measured everyday for 3 days followed by once a week for 11 weeks; assay type: functional

COc1ccc(-c2ccccc2)cc1NNC(=O)OC(C)C [BIFENAZATE]
LC50 (Bombus terrestris [1]): 9.6 mgAi/L | NOAEL (Bombus terrestris [1]): 0.096 mgAi/L | Activity (Bombus terrestris [2]): Active | LD50 (Apis mellifera [3]): <1 µg | Activity (Bombus terrestris [4]): Active | mortality at 96 µg/mL (Bombus terrestris [5]): < 25% | mortality at 96 µg/mL (Bombus terrestris [6]): 95% | Activity (Bombus terrestris [7]): Active | Activity (Bombus terrestris [8]): inactive | LD50 (Bombus terrestris [9]): >100 µg | LD50 (Apis mellifera [10]): 8.5 µg | Activity (Bombus terrestris [11]): inactive

Cc1cc(C)c(C2=C(OC(=O)CC(C)(C)C)C3(CCCC3)OC2=O)c(C)c1 [SPIROMESIFEN]
Activity (Bombus terrestris [12]): Active | mortality at 0.8 µg/mL (Bombus terrestris [13]): < 25% | Activity (Bombus terrestris [14]): Active | Activity (Bombus terrestris [15]): inactive | Activity (Bombus terrestris [16]): inactive | mortality at 0.8 µg/mL (Bombus terrestris [17]): < 25%

CC(C)OC(=O)C(O)(c1ccc(Br)cc1)c1ccc(Br)cc1 [BROMOPROPYLATE]
Activity (Bombus terrestris [18]): 50% | mortality at 500 µg/mL (Bombus terrestris [19]): < 25% | Activity (Bombus terrestris [20]): inactive | Activity (Bombus terrestris [21]): inactive | mortality at 500 µg/mL (Bombus terrestris [22]): < 25% | Activity (Bombus terrestris [23]): Active

Clc1ccccc1-c1nnc(-c2ccccc2Cl)nn1 [CLOFENTEZINE]
mortality at 150 µg/mL (Bombus terrestris [24]): 50% | Activity (Bombus terrestris [25]): Active | Activity (Bombus terrestris [26]): inactive | Activity (Bombus terrestris [27]): 50% | mortality at 150 µg/mL (Bombus terrestris [28]): < 25%

CCC(C)(C)C(=O)OC1=C(c2ccc(Cl)cc2Cl)C(=O)OC12CCCCC2 [SPIRODICLOFEN]
Activity (Bombus terrestris [2]): Active | Activity (Bombus terrestris [29]): Active | mortality at 96 µg/mL (Bombus terrestris [5]): < 25% | mortality at 96 µg/mL (Bombus terrestris [6]): < 25% | Activity (Bombus terrestris [8]): inactive | Activity (Bombus terrestris [11]): inactive

CC(C)(C)c1ccc(CSc2cnn(C(C)(C)C)c(=O)c2Cl)cc1 [PYRIDABEN]
Activity (Bombus terrestris [30]): Active | Activity (Bombus terrestris [31]): Active | Activity (Bombus terrestris [32]): inactive | Activity (Bombus terrestris [33]): Active | mortality at 75 µg/mL (Bombus terrestris [34]): 95% | Activity (Bombus terrestris [35]): Active | mortality at 75 µg/mL (Bombus terrestris [36]): 50% | mortality at 75 µg/mL (Bombus terrestris [37]): 90%
